Tests used:
human GAL2 receptor = biological target: T1, human GAL2 receptor (Homo sapiens, UniProt O43603); experiment: Radioligand binding at cloned human GAL2 receptor; conditions: pyrimidines, read-out: Ki GalR2
T1 construct: expressed in transfected cells
T1 sequence (O43603 1-387): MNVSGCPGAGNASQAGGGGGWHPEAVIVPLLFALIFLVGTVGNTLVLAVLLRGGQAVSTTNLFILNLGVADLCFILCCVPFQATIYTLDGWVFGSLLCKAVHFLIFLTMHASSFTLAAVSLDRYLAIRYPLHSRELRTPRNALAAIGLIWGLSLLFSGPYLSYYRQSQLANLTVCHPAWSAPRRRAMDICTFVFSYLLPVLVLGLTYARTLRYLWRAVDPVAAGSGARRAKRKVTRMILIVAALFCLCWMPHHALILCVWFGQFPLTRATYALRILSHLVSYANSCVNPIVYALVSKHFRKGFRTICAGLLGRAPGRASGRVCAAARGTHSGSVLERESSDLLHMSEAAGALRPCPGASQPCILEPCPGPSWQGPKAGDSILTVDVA
Procedure: The binding properties of the pyrimidines of the present invention were evaluated at the cloned human galanin receptors, GAL1, GAL2, and GAL3, using protocols described herein.
The binding properties of the indolones of the present invention were evaluated at the cloned human galanin receptors, GAL1, GAL2, and GAL3, using protocols described herein.
LM(tk-) cells were stably transfected with the human GAL1 or GAL3 receptor. CHO cells were stably transfected with the human GAL2 receptor.
cDNAs for the human and rat GAL1, and human and rat GAL3 receptors were transfected with a G-418 resistant gene into the mouse fibroblast LM(tk-) cell line by a calcium phosphate transfection method (Cullen, 1987). Stably transfected cells were selected with G-418. Human and rat GAL2 receptors were similarly transfected into CHO cells.
Membranes were harvested from stably transfected LM(tk-) cells. Adherent cells were washed twice in ice-cold phosphate buffered saline (138 mM NaCl, 8.1 mM Na2HPO4, 2.5 mM KCl, 1.2 mM KH2PO4, 0.9 mM CaCl2, 0.5 mM MgCl2, pH 7.4) and lysed by sonication in ice-cold sonication buffer (20 mM Tris-HCl, 5 mM EDTA, pH 7.7). Large particles and debris were cleared by low speed centrifugation (200 x g, 5 min, 4°C). Membranes were collected from the supernatant fraction by centrifugation (32,000 x g, 18 min, 4°C), washed with ice-cold hypotonic buffer, and collected again by centrifugation (32,000 x g, 18 min, 4°C). The final membrane pellet was resuspended by sonication into a small volume of ice-cold binding buffer (-1 ml for every 5 plates: 10 mM NaCl, 20 mM HEPES, 0.22 mM KH2PO4, 1.26 mM CaCl2, 0.81 mM MgSO4, pH 7.4). Protein concentration was measured by the Bradford method (Bradford, 1976) using Bio-Rad Reagent, with bovine serum albumin as a standard. Membranes were held on ice for up to one hour and used fresh, or flash frozen and stored in liquid nitrogen. Membranes were prepared similarly from CHO cells.
Galanin Recentors: Binding assays were performed according to the following published methods: human GAL3 (PCT International Publication No. WO 98/15570), human GAL1 (PCT International Publication No. WO 95/2260), human GAL2 (PCT International Publication No. WO 97/26853).
Binding data were analyzed using nonlinear regression and statistical techniques available in the GraphPAD Prism package (San Diego, CA). Enzymatic assay data were derived from a standard curve of reference compound data.

human GAL3 receptor = biological target: T2, human GAL3 receptor (Homo sapiens, UniProt O60755); experiment: Radioligand binding at cloned human GAL3 receptor; conditions: pyrimidines, cloned human receptor; read-out: Ki GalR3
T2 construct: expressed in transfected cells
T2 sequence (O60755 1-368): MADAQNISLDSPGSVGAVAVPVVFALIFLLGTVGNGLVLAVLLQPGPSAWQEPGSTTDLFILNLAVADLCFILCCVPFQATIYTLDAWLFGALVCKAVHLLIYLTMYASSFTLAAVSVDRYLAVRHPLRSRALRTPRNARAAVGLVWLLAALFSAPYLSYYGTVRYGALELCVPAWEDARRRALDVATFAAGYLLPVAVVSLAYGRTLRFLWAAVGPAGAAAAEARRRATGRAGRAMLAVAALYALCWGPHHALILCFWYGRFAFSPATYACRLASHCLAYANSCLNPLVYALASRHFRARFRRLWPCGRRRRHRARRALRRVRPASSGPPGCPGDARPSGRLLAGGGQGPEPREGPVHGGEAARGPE
Summary of the method: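 Compound vehicle, as final assay concentration, was 3% DMSO (indolones) or 1% ethanol/0.09% polypuronic acid F-127 (pyrimidines). Binding measured on fresh or frozen membranes of stably transfected LM(tk-) mouse fibroblasts carrying cloned human GAL3, in pH 7.4 HEPES buffer; values derived by nonlinear regression.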

Work on `Cc1ccc(Nc2cc(N3CCCCC3)nc(N(C)c3ccccc3)n2)cc1` [Example 6] yielded a Ki (human GAL2 receptor) of 2.16 µM and a Ki (human GAL3 receptor) of 0.248 µM.
For `Cc1ccc(Nc2cc(N3CCCCC3)nc(NCCc3c[nH]c4ccc(C)cc34)n2)cc1` [Example 8], the Ki (human GAL2 receptor) was 0.795 µM and the Ki (human GAL3 receptor) was 0.264 µM.
With `COc1ccc2[nH]cc(CCNc3nc(Nc4ccc(C)cc4)cc(N4CCCCC4)n3)c2c1` [Example 9] the Ki (human GAL2 receptor) was 2.11 µM and the Ki (human GAL3 receptor) was 0.568 µM.
`Cc1ccc(Nc2cc(N3CCCCC3)nc(NCCc3c[nH]c4ccccc34)n2)cc1` [Example 10] gave a Ki (human GAL2 receptor) of 0.865 µM and a Ki (human GAL3 receptor) of 0.1 µM.
With `CN(CCc1c[nH]c2ccccc12)c1nc(Nc2cccc(F)c2)cc(N2CCCCC2)n1` [Example 14] the Ki (human GAL2 receptor) was 1.34 µM and the Ki (human GAL3 receptor) was 0.054 µM.
`COCCN(CCc1c[nH]c2ccccc12)c1nc(Nc2ccc(C)cc2)cc(N2CCCCC2)n1` [Example 19] gave a Ki (human GAL2 receptor) of 1.77 µM and a Ki (human GAL3 receptor) of 0.079 µM.
`Cc1ccc(Nc2cc(N3CCCCC3)nc(N3CCC(c4ccccc4)CC3)n2)cc1` [Example 24] was tested, and the Ki (human GAL2 receptor) was 3.96 µM and the Ki (human GAL3 receptor) was 0.21 µM.
Work on `CCc1ccccc1N1CCN(c2nc(Nc3ccc(C)cc3)cc(N3CCCCC3)n2)CC1` [Example 26] yielded a Ki (human GAL2 receptor) of 4.05 µM and a Ki (human GAL3 receptor) of 0.085 µM.
In the case of `Cc1ccc(Nc2cc(N3CCCCC3)nc(N3CCN(c4ccccn4)CC3)n2)cc1` [Example 30], the Ki (human GAL2 receptor) is reported as 2.61 µM and the Ki (human GAL3 receptor) is reported as 0.197 µM.
`Cc1ccc(Nc2cc(N3CCCCC3)nc(N3CCN(c4ncccc4C)CC3)n2)cc1` [Example 31] gave a Ki (human GAL2 receptor) of 3.4 µM and a Ki (human GAL3 receptor) of 0.174 µM.
For `Cc1ccc(Nc2cc(N3CCCCC3)nc(N3CCN(c4cc(C(F)(F)F)ccn4)CC3)n2)cc1` [Example 32], the Ki (human GAL2 receptor) was 1.86 µM and the Ki (human GAL3 receptor) was 0.145 µM.
`Cc1ccc(Nc2cc(N3CCCCC3)nc(N3CCN(c4ncccn4)CC3)n2)cc1` [Example 37] was tested, and the Ki (human GAL2 receptor) was 0.903 µM and the Ki (human GAL3 receptor) was 0.343 µM.
